Assay results: US7667052B2 (Eisai R&D Management Co., Ltd., priority 2003, dated 2010)

System: transcription from VEGF promoter
Assay: VEGF transcription-suppressing activity, VEGF-PLAP reporter in U251/1-8 cell
Type: cell-based
Conditions: Homo sapiens, U-251, 18 h, read-out: IC50 values of VEGF transcription-suppressing activity (range given)
Source text: In order to prepare reporter system reflecting transcription from VEGF promoter, VEGF promoter sequence was cloned, and inserted in secretory alkali phosphatase (PLAP) vector to construct reporter vector.
In order to obtain the promoter region of human VEGF, VEGF genome was cloned from phage library. PCR primers having the sequences described in Sequence Numbers 1 and 2 were designed based on VEGF cDNA (GenBank accession number: X62568) and a fragment having about 340 bp was obtained by carrying out PCR. Human genome phage library (Human genomic library, Clontech Co.) was screened using this as a probe to obtain pUC18-VEGFA containing about 5.4 kb of VEGF 5′ flanking region. The pUC18-VEGFA was cleaved by KpnI/NheI, VEGF promoter region of about 2.3 kb obtained was inserted in the multi cloning site KpnI/NheI of secretory alkali phosphatase (PLAP) vector (Goto et al, Mol. Pharmacol., 49, 860-873, 1996), and thus, VEGF-PLAP vector was constructed.
The above-mentioned VEGF-PLAP vector was introduced in the U251 cell cultured in the DULBECCO-modified eagle medium (DMEM; manufactured by SIGMA Co., Ltd.) containing 10% fetal calf serum, and cultured in the presence of 1 mg/ml G418 (Merck Co.) to establish G418 resistant stable clone (U251/1-8 cell).
It was confirmed that U251/1-8 cell secreted PLAP under low oxygen (2% O2 incubator) in the same manner as in the report (Cell. Mol. Biol. Res. 40, 35-39, 1994) and was a reporter system reflecting the transcription from VEGF promoter. The screening of the compound suppressing VEGF production which was induced by low oxygen stimulation was carried out below using the clone.
In order to remove the influence of alkaline phosphates in serum, U251/1-8 cell was rinsed twice with the adequate amount of PBS (Phosphate buffered saline), diluted in the DMEM medium containing 10% of serum in which alkaline phosphates was inactivated by the treatment of 60° C. for 20 min., and dispensed in 96-well plates by 4×10^4 cells/180 μl.
After culturing at 37° C. overnight in a CO2 incubator (5% CO2), 20 μL of the above-mentioned incubation solution containing the test compound diluted with 3-fold succession was added, and then they were incubated in a low oxygen ([…]) incubator for 18 hours. With respect to the PLAP activity in the culture supernatants, 10 μl of the supernatants was added to 50 μl of 0.28 M Na2CO3—NaHCO3 buffer solution (pH 10.0, 8.0 mM MgSO4), and finally 50 μl of alkaline phosphatase substrate (LUMISTEIN, Genomescience Co.) was added. After reacting for one hour, the alkaline phosphatase activity of the PLAP was measured by detecting the chemical luminescence by a micro plate reader (Perkin-Elmer Co.).
The PLAP activity under usual oxygen was set as 0%, the PLAP activity of cell which was treated under low oxygen was set as 100%, and the concentration suppressing the PLAP activity by 50% was set as the IC50 value of PLAP.

Work on `CCC(OC)C(C)C1OC1C(O)C(C)/C=C/C=C(\C)C1OC(=O)CC(O)CCC(C)(O)C(OC(C)=O)/C=C/C1C` (stereo not shown) [B9, (8E,12E,14E)-7-Acetoxy-3,6,17-trihydroxy-21-methoxy-6,10,12,16,20-pentamethyl-18,19-epoxytricosa-8,12,14-trien-11-olide] yielded an IC50 of 0.5 to 100 nM.

Same assay, conditions: Homo sapiens, U-251; U251/1-8 cell, PLAP activity, low oxygen 18 hours; read-out: IC50 values of VEGF transcription-suppressing activity (range given)

`CCC(O)C(C)C1OC1CC(C)/C=C/C=C(\C)C1OC(=O)CC(O)/C=C/C(C)(O)C(OC(C)=O)/C=C/C1C` (stereo not shown) [11107H] and `CCC(O)C(C)C1OC1CC(C)/C=C/C=C(\C)C1OC(=O)CC(OC)CCC(C)(O)C(OC(C)=O)/C=C/C1C` (stereo not shown) [B8-4, (8E,12E,14E)-7-acetoxy-6,21-dihydroxy-3-methoxy-6,10,12,16,20-pentamethyl-18,19-epoxytricosa-8,12,14-trien-11-olide] cannot be ordered by IC50: 1 to 100 nM for the first, 0.5 to 100 nM for the second.

`CCC(O)C(C)C1OC1C(O)C(C)/C=C/C=C(\C)C1OC(=O)CC(O)CCC(C)(O)C(OC(C)=O)/C=C/C1C` (stereo not shown) [11107P] and `CCC(F)C(C)C1OC1CC(C)/C=C/C=C(\C)C1OC(=O)CC(O)CCC(C)(O)C(OC(C)=O)/C=C/C1C` (stereo not shown) [B18-1, (8E,12E,14E)-7-Acetoxy-21-fluoro-3,6-dihydroxy-6,10,12,16,20-pentamethyl-18,19-epoxytricosa-8,12,14-trien-11-olide] cannot be ordered by IC50: 1 to 100 nM for the first, 0.5 to 100 nM for the second.

`CCC(O)C(C)C(Cl)C(O)CC(C)/C=C/C=C(\C)C1OC(=O)CC(O)CCC(C)(O)C(OC(C)=O)/C=C/C1C` (stereo not shown) [B1-1, (8E,12E,14E)-7-Acetoxy-19-chloro-3,6,18,21-tetrahydroxy-6,10,12,16,20-pentamethyltricosa-8,12,14-trien-11-olide] and `CCC(O)C(C)C(O)C(Cl)CC(C)/C=C/C=C(\C)C1OC(=O)CC(O)CCC(C)(O)C(OC(C)=O)/C=C/C1C` (stereo not shown) [B1-2, (8E,12E,14E)-7-acetoxy-18-chloro-3,6,19,21-tetrahydroxy-6,10,12,16,20-pentamethyltricosa-8,12,14-trien-11-olide] fall in the same range of IC50: 0.5 to 100 nM for the first, 0.5 to 100 nM for the second.

`CCC(O)C(C)C(O)C(Br)CC(C)/C=C/C=C(\C)C1OC(=O)CC(O)CCC(C)(O)C(OC(C)=O)/C=C/C1C` (stereo not shown) [B2-1, (8E,12E,14E)-7-Acetoxy-18-bromo-3,6,19,21-tetrahydroxy-6,10,12,16,20-pentamethyltricosa-8,12,14-trien-11-olide] and `CCC(O)C(C)C(Br)C(O)CC(C)/C=C/C=C(\C)C1OC(=O)CC(O)CCC(C)(O)C(OC(C)=O)/C=C/C1C` (stereo not shown) [B2-2, (8E,12E,14E)-7-acetoxy-19-bromo-3,6,18,21-tetrahydroxy-6,10,12,16,20-pentamethyltricosa-8,12,14-trien-11-olide] fall in the same range of IC50: 0.5 to 100 nM for the first, 0.5 to 100 nM for the second.

`CCC(O)C(C)C(I)C(O)CC(C)/C=C/C=C(\C)C1OC(=O)CC(O)CCC(C)(O)C(OC(C)=O)/C=C/C1C` (stereo not shown) [B3-1, (8E,12E,14E)-7-Acetoxy-3,6,18,21-tetrahydroxy-19-iodo-6,10,12,16,20-pentamethyltricosa-8,12,14-trien-11-olide] and `CCC(O)C(C)C(O)C(I)CC(C)/C=C/C=C(\C)C1OC(=O)CC(O)CCC(C)(O)C(OC(C)=O)/C=C/C1C` (stereo not shown) [B3-2, (8E,12E,14E)-7-acetoxy-3,6,19,21-tetrahydroxy-18-iodo-6,10,12,16,20-pentamethyltricosa-8,12,14-trien-11-olide] fall in the same range of IC50: 0.5 to 100 nM for the first, 0.5 to 100 nM for the second.

`CCC(OC)C(C)C1OC1CC(C)/C=C/C=C(\C)C1OC(=O)CC(O)CCC(C)(O)C(OC(C)=O)/C=C/C1C` (stereo not shown) [B8-1, (8E,12E,14E)-7-Acetoxy-3,6-dihydroxy-21-methoxy-6,10,12,16,20-pentamethyl-18,19-epoxytricosa-8,12,14-trien-11-olide] and `CCC(OC(C)=O)C(C)C1OC1CC(C)/C=C/C=C(\C)C1OC(=O)CC(O)CCC(C)(O)C(OC(C)=O)/C=C/C1C` (stereo not shown) [B20-2, (8E,12E,14E)-7,21-diacetoxy-3,6-dihydroxy-6,10,12,16,20-pentamethyl-18,19-epoxytricosa-8,12,14-trien-11-olide] fall in the same range of IC50: 0.5 to 100 nM for the first, 0.5 to 100 nM for the second.

`CCC(OC)C(C)C1OC1CC(C)/C=C/C=C(\C)C1OC(=O)CC(O)CCC(C)(OC)C(OC(C)=O)/C=C/C1C` (stereo not shown) [B8-2, (8E,12E,14E)-7-acetoxy-3-hydroxy-6,21-dimethoxy-6,10,12,16,20-pentamethyl-18,19-epoxytricosa-8,12,14-trien-11-olide] and `CCC(O)C(C)C1OC1CC(C)/C=C/C=C(\C)C1OC(=O)CC(O)CCC(C)(OC)C(OC(C)=O)/C=C/C1C` (stereo not shown) [B8-5, (8E,12E,14E)-7-acetoxy-3,21-dihydroxy-6-methoxy-6,10,12,16,20-pentamethyl-18,19-epoxytricosa-8,12,14-trien-11-olide] fall in the same range of IC50: 0.5 to 100 nM for the first, 0.5 to 100 nM for the second.

`CCC(OS(C)(=O)=O)C(C)C1OC1CC(C)/C=C/C=C(\C)C1OC(=O)CC(O)CCC(C)(O)C(OC(C)=O)/C=C/C1C` (stereo not shown) [B16-1, (8E,12E,14E)-7-Acetoxy-3,6-dihydroxy-21-methanesulfonyloxy-6,10,12,16,20-pentamethyl-18,19-epoxytricosa-8,12,14-trien-11-olide] and `CCC(OC(=O)CO)C(C)C1OC1CC(C)/C=C/C=C(\C)C1OC(=O)CC(O)CCC(C)(O)C(OC(C)=O)/C=C/C1C` (stereo not shown) [B27] fall in the same range of IC50: 0.5 to 100 nM for the first, 0.5 to 100 nM for the second.

`CCC(OS(=O)(=O)c1ccc(C)cc1)C(C)C1OC1CC(C)/C=C/C=C(\C)C1OC(=O)CC(O)CCC(C)(O)C(OC(C)=O)/C=C/C1C` (stereo not shown) [B17, (8E,12E,14E)-7-Acetoxy-3,6-dihydroxy-21-(toluene-4-sulfonyloxy)-6,10,12,16,20-pentamethyl-18,19-epoxytricosa-8,12,14-trien-11-olide] and `CCC(OC(=O)CN(C)C)C(C)C1OC1CC(C)/C=C/C=C(\C)C1OC(=O)CC(O)CCC(C)(O)C(OC(C)=O)/C=C/C1C` (stereo not shown) [B28, (8E,12E,14E)-7-Acetoxy-3,6-dihydroxy-6,10,12,16,20-pentamethyl-21-dimethylaminoacetoxy-18,19-epoxytricosa-8,12,14-trien-11-olide] fall in the same range of IC50: 0.5 to 100 nM for the first, 0.5 to 100 nM for the second.

`CCC(OC(C)=O)C(C)C(O)C(Cl)CC(C)/C=C/C=C(\C)C1OC(=O)CC(O)CCC(C)(O)C(OC(C)=O)/C=C/C1C` (stereo not shown) [B21-2, (8E,12E,14E)-7,21-diacetoxy-18-chloro-3,6,19-trihydroxy-6,10,12,16,20-pentamethyltricosa-8,12,14-trien-11-olide] and `CCC(OC(C)=O)C(C)C(OC(C)=O)C(Cl)CC(C)/C=C/C=C(\C)C1OC(=O)CC(O)CCC(C)(O)C(OC(C)=O)/C=C/C1C` (stereo not shown) [B21-4, (8E,12E,14E)-7,19,21-triacetoxy-18-chloro-3,6-dihydroxy-6,10,12,16,20-pentamethyltricosa-8,12,14-trien-11-olide] fall in the same range of IC50: 0.5 to 100 nM for the first, 0.5 to 100 nM for the second.

`CCC(O)C(C)C(OC(C)=O)C(Cl)CC(C)/C=C/C=C(\C)C1OC(=O)CC(OC(C)=O)CCC(C)(O)C(OC(C)=O)/C=C/C1C` (stereo not shown) [B21-3, (8E,12E,14E)-3,7,19-triacetoxy-18-chloro-6,21-dihydroxy-6,10,12,16,20-pentamethyltricosa-8,12,14-trien-11-olide] and `CCC(OC(C)=O)C(C)C(Br)C(CC(C)/C=C/C=C(\C)C1OC(=O)CC(O)CCC(C)(O)C(OC(C)=O)/C=C/C1C)OC(C)=O` (stereo not shown) [B23-1, (8E,12E,14E)-7,18,21-Triacetoxy-19-bromo-3,6-dihydroxy-6,10,12,16,20-pentamethyltricosa-8,12,14-trien-11-olide] fall in the same range of IC50: 0.5 to 100 nM for the first, 0.5 to 100 nM for the second.

`CCOCC(=O)OC1CCC(C)(O)C(OC(C)=O)/C=C/C(C)C(/C(C)=C/C=C/C(C)CC2OC2C(C)C(O)CC)OC(=O)C1` (stereo not shown) [B24, (8E,12E,14E)-7-Acetoxy-3-ethoxyacetoxy-6,21-dihydroxy-6,10,12,16,20-pentamethyl-18,19-epoxytricosa-8,12,14-trien-11-olide] and `CCOCC(=O)OCC(=O)OC1CCC(C)(O)C(OC(C)=O)/C=C/C(C)C(/C(C)=C/C=C/C(C)CC2OC2C(C)C(O)CC)OC(=O)C1` (stereo not shown) [B26] fall in the same range of IC50: 0.5 to 100 nM for the first, 0.5 to 100 nM for the second.

`CCOCC(=O)OC(CC)C(C)C1OC1CC(C)/C=C/C=C(\C)C1OC(=O)CC(O)CCC(C)(O)C(OC(C)=O)/C=C/C1C` (stereo not shown) [B25, (8E,12E,14E)-7-Acetoxy-21-ethoxyacetoxy-3,6-dihydroxy-6,10,12,16,20-pentamethyl-18,19-epoxytricosa-8,12,14-trien-11-olide] gave an IC50 of 0.5 to 100 nM.

Same assay, conditions: Homo sapiens, U-251; U251/1-8 cell, PLAP activity, low oxygen 18 hours; read-out: VEGF transcription suppressing activity (IC50: nM)

First: CCC(O)C(C)C1OC1CC(C)/C=C/C=C(\C)C1OC(=O)CC(O)/C=C/C(C)(O)C(OC(C)=O)/C=C/C1C (stereo not shown) [11107H]
Second: CCC(OC(C)=O)C(C)C1OC1CC(C)/C=C/C=C(\C)C1OC(=O)CC(O)CCC(C)(O)C(OC(C)=O)/C=C/C1C (stereo not shown) [B20-2, (8E,12E,14E)-7,21-diacetoxy-3,6-dihydroxy-6,10,12,16,20-pentamethyl-18,19-epoxytricosa-8,12,14-trien-11-olide]
The IC50 of the first is 1.9-fold higher: 3.1 nM for the first, 1.6 nM for the second.
